We go through one molecule from ChEMBL document CHEMBL6120940, “Discovery of N-Aryl-N'-[4-(aryloxy)cyclohexyl]squaramide-Based Inhibitors of LXR/SREBP-1c Signaling Pathway Ameliorating Steatotic Liver Disease: Navigating the Role of SIRT6 Activation” (J Med Chem, 2024).

One data set addresses CYP3A4 (Homo sapiens, UniProt P08684). Briefly: Inhibition of CYP3A4 in human liver microsomes at 10 uM using midazolam as substrate preincubated for 5 mins followed by NADPH generating system addition and measured after 15 mins relative to control. The class given is ADME, Microsome. The note with it: probe midazolam, time 20 min. On the technique in general: Liver microsomes are vesicles of endoplasmic reticulum, rich in cytochrome P450 enzymes.

A further data set has as its target CYP2C9 (Homo sapiens, UniProt P11712). In words: Inhibition of CYP2C9 in human liver microsomes at 10 uM using diclofenac as substrate preincubated for 5 mins followed by NADPH generating system addition and measured after 15 mins relative to control. The data set is classed as ADME, Microsome. The settings on record: probe diclofenac, time 20 min.
In the next data set the target is T1, CYP1A2 (Homo sapiens, UniProt P05177).
T1 sequence (P05177 whole entry): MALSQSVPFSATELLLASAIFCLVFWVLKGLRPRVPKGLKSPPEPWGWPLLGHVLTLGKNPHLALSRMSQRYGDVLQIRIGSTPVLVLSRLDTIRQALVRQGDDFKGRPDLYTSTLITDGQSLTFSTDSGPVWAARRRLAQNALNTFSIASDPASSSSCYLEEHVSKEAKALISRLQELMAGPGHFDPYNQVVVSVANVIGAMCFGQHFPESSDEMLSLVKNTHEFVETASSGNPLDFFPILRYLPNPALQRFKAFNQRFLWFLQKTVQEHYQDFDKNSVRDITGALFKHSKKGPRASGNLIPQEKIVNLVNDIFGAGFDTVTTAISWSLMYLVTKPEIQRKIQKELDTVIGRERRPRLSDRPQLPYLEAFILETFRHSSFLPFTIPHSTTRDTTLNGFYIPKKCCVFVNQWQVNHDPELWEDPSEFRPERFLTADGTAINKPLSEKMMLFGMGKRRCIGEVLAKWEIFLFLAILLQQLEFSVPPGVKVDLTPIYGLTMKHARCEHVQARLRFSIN
Briefly: Inhibition of CYP1A2 in human liver microsomes at 10 uM using phenacetin as substrate preincubated for 5 mins followed by NADPH generating system addition and measured after 15 mins relative to control. The data set is classed as ADME, Microsome. The note with it: probe phenacetin, time 20 min.

Data set [1] in a line: Stability in rat plasma measured after 120 mins by LC-MS/MS analysis. The data set is classed as ADME, cell-free. The settings on record: read-out: Stability.
A short description of data set [2]: Metabolic stability in human liver microsomes at 1 uM measured after 30 mins in presence of NADPH regeneration system by LC-MS/MS analysis. The settings on record: read-out: Stability. The class given is ADME, Microsome.
For data set [3], the target named is T2, Sterol regulatory element-binding protein 1 (Homo sapiens) (UniProt P36956).
T2 sequence (whole entry): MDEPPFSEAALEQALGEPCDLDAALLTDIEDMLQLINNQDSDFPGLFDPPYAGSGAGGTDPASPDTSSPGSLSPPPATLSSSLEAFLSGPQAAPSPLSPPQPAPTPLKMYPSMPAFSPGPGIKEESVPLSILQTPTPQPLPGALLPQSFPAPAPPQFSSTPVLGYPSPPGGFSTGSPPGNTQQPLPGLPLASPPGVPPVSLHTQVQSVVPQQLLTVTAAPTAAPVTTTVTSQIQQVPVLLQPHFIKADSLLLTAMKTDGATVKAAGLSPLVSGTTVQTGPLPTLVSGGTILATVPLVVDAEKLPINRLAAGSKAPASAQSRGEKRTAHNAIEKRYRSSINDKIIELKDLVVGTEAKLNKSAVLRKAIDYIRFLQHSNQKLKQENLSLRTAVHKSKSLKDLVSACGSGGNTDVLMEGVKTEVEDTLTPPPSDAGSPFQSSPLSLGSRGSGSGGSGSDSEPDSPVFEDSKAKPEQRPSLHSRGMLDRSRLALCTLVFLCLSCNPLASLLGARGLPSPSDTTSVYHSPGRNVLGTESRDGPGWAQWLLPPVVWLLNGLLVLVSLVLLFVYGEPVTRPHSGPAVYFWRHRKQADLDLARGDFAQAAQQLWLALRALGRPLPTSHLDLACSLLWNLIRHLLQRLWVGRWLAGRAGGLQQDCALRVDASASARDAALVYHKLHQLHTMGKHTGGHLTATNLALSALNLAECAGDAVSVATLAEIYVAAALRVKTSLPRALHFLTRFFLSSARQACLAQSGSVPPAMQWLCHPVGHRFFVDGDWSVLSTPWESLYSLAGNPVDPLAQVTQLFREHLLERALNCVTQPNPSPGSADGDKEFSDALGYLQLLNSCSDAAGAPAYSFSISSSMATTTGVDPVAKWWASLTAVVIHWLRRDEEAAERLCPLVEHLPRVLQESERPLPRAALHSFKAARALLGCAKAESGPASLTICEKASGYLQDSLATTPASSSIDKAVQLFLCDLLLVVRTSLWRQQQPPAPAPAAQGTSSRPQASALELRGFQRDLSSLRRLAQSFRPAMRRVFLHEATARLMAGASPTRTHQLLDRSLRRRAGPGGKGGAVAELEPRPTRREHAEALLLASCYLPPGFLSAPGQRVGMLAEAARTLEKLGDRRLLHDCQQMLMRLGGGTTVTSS
In words: Inhibition of SREBP-1c transcriptional activity in human HepG2 cells expressing LXRalpha/RXRalpha assessed as reduction in SRE-luciferase level at 10 uM pretreated with compound for 30 mins followed by T0901317 addition and measured after 12 hrs by Dual-Glo luciferase assay relative to control. The settings on record: time 12.5 hrs. The data set is classed as cell-based.

For a further data set, the target named is CYP2D6 (Homo sapiens, UniProt P10635). In words: Inhibition of CYP2D6 in human liver microsomes at 10 uM using dextromethorphan as substrate preincubated for 5 mins followed by NADPH generating system addition and measured after 15 mins relative to control. The data set is classed as ADME, Microsome. The note with it: probe dextromethorphan, time 20 min.

Data set [4] concerns the target Voltage-gated inwardly rectifying potassium channel KCNH2 (Homo sapiens, UniProt Q12809). In words: Inhibition of human ERG expressing HEK cells by whole-cell patch clamp assay. The data set is classed as toxicity, cell-based. On the technique in general: The patch-clamp technique gives a direct electrical read-out from membranes.
A short description of data set [5]: Stability in mouse plasma measured after 120 mins by LC-MS/MS analysis. The data set is classed as ADME, cell-free. The note with it: read-out: Stability.
The nature of data set [6]: Downregulation of SREBP-1c mRNA expression in human HepG2 cells at 10 uM pretreated with compound for 30 mins followed by T0901317 addition and measured after 12 hrs by RT-qPCR analysis relative to control. The class given is functional. The settings on record: time 12.5 hrs. A general note: Quantitative PCR measures a nucleic acid by following its amplification.
A short description of data set [7]: Metabolic stability in mouse liver microsomes at 1 uM measured after 30 mins in presence of NADPH regeneration system by LC-MS/MS analysis. The note with it: read-out: Stability. The class given is ADME, Microsome.
Another data set deals with CYP2C19 (Homo sapiens, UniProt P33261). In words: Inhibition of CYP2C19 in human liver microsomes at 10 uM using S-mephenytoin as substrate preincubated for 5 mins followed by NADPH generating system addition and measured after 15 mins relative to control. The class given is ADME, Microsome. The note with it: probe S-mephenytoin, time 20 min.
Data set [8] in a line: Metabolic stability in rat liver microsomes at 1 uM measured after 30 mins in presence of NADPH regeneration system by LC-MS/MS analysis. The class given is ADME, Microsome. The note with it: read-out: Stability.
Data set [9] is described as follows: Stability in human plasma measured after 120 mins by LC-MS/MS analysis. The data set is classed as ADME, cell-free. The settings on record: read-out: Stability.

CYP2C19, sequence (P33261 whole entry): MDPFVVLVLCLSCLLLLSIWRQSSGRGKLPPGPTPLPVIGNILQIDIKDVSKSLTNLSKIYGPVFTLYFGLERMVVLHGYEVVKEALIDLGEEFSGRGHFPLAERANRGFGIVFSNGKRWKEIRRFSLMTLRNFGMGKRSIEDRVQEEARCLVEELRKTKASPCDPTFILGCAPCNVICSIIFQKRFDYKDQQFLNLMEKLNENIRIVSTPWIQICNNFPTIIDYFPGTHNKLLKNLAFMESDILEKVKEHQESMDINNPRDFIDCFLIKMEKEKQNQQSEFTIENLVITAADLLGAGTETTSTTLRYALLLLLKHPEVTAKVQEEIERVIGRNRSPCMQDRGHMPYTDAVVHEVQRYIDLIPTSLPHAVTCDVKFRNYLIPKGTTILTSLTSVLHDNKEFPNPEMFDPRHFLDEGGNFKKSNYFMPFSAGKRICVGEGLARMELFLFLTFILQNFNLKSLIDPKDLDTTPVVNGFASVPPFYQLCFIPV
Voltage-gated inwardly rectifying potassium channel KCNH2, sequence (Q12809 whole entry): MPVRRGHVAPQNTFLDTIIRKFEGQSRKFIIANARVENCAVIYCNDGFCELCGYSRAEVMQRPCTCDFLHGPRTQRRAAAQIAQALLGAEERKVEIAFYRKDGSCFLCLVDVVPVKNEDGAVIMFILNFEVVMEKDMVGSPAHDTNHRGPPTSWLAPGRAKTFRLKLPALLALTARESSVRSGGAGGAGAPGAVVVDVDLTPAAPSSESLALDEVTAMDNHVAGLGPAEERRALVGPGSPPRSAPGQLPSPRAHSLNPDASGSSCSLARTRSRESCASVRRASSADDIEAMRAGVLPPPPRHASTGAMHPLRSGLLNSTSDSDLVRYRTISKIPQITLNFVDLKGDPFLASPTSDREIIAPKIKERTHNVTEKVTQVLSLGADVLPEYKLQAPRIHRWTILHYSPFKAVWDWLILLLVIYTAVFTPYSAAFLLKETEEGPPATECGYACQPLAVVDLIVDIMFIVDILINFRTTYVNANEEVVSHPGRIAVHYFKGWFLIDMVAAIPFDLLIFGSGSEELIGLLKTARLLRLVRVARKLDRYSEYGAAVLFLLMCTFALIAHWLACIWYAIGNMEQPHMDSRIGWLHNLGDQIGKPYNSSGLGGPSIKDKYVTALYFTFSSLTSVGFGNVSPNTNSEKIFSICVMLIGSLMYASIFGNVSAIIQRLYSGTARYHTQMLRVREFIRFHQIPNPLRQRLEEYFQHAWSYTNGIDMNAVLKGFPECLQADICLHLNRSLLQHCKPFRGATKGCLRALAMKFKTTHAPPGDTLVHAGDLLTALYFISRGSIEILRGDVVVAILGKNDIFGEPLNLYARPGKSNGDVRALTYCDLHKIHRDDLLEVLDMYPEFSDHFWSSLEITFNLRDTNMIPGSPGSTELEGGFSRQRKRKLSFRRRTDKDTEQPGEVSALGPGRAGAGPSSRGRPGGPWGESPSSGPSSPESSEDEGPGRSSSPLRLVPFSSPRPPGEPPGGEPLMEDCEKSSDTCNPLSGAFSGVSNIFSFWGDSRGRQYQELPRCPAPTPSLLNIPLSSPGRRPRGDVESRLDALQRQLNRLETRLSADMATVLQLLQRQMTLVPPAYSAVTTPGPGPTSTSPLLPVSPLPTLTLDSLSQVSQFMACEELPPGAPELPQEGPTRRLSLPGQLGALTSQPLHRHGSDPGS
CYP3A4, sequence (P08684 whole entry): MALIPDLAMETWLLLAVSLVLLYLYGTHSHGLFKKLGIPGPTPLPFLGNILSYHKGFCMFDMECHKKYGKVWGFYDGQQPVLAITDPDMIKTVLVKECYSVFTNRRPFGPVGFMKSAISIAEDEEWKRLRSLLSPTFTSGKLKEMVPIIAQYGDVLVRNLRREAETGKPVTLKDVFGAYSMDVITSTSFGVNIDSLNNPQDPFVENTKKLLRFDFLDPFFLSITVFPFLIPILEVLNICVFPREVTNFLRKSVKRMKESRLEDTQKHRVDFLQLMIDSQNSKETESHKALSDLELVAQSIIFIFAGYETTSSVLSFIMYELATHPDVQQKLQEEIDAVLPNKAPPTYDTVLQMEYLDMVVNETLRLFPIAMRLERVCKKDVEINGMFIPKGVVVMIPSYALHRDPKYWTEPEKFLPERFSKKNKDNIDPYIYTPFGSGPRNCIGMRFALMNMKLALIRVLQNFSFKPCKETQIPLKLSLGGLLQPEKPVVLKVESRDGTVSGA
CYP2C9, sequence (P11712 whole entry): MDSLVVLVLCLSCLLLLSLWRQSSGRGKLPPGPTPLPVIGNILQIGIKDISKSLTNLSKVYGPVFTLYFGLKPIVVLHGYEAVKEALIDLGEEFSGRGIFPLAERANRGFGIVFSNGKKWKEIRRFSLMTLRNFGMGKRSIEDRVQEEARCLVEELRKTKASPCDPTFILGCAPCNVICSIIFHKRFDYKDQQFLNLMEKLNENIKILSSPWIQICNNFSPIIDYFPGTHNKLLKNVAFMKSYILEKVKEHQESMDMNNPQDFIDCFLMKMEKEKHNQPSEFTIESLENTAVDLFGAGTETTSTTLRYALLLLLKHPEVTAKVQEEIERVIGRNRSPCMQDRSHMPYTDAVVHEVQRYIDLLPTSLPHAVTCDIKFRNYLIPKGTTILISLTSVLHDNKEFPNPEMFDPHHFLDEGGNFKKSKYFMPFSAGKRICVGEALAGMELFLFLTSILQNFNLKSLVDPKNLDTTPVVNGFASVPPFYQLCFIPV
CYP2D6, sequence (P10635 whole entry): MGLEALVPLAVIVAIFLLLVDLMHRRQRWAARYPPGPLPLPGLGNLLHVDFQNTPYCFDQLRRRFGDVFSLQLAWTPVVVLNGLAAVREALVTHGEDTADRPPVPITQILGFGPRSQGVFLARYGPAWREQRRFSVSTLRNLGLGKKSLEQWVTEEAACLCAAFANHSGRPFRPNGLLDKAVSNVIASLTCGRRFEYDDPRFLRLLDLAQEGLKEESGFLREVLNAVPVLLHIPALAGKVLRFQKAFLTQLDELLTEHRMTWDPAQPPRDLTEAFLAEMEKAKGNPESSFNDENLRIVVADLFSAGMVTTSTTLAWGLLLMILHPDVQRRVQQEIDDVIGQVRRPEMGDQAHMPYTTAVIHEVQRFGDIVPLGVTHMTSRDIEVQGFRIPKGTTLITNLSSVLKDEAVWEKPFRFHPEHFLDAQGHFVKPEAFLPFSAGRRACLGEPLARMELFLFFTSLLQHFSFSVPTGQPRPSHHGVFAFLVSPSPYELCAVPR

What is called inhibition is how much of the control response was suppressed. The term IC50 denotes the concentration that inhibits the measured activity by half. The low end stands for higher potency, the high end for lower potency. For `COc1ccccc1Nc1c(N[C@H]2CC[C@H](Oc3ccc(C#N)cc3)CC2)c(=O)c1=O`, the inhibition at 0.25 h, 10 µM against CYP3A4 is 84%; on CYP2C9 it was 56.9%; on CYP1A2 it was above 100%; against CYP2D6, 86.2%; against CYP2C19, 38.9%. Besides, the remaining at 2 h in data set [1] was 93.1%; in data set [5] it was above 100%; in data set [9] it was 96.3%. For the same molecule, the remaining at 0.5 h, 1 µM in data set [2] is 15.5%; in data set [7], 31%; in data set [8], 26.5%. The inhibition in [3] amounted to 32.6%. In data set [4], this molecule came in with a 50% inhibitory concentration (IC50) of 493 nM. In addition, the Activity in data set [6] is 7.4%.
